{"source": "patent US8188059B2", "about": "“Compounds and methods for modulating expression of GCGR” (Isis Pharmaceuticals, Inc., priority 2006, dated 2012)", "key": {"PCSK9 mRNA [1]": {"test_system": "PCSK9 mRNA", "assay": "Dose-dependent inhibition of PCSK9 in Hep3B cells with EC50 (Example 19, Table 76)", "assay_type": "cell-based, human", "experimental": "Short antisense compounds targeted to a PCSK9 nucleic acid were tested in a dose response experiment Hep3B cells. After the treatment period, RNA was isolated from the cells and PCSK9 mRNA levels were measured by quantitative real-time PCR, as described herein. PCSK9 mRNA levels were normalized to cyclophilin mRNA levels, as measured by real-time PCR using a cyclophilin-specific primer probe set. Results are presented as percent inhibition of PCSK9, relative to untreated control cells. […] As illustrated in the following table, PCSK9 mRNA levels were reduced in a dose-dependent manner."}, "PCSK9 mRNA [2]": {"test_system": "PCSK9 mRNA", "assay_type": "cell-based, human", "settings": "Hep3B cells, 100 nM, relative to untreated control cells; for % Inhib (PCSK9 mRNA): 0 = no reduction observed", "experimental": "When cells reached appropriate confluency, they were treated with oligonucleotide using LIPOFECTIN® as described. […] Cells were treated and data were obtained in duplicate or triplicate. […] Cells were harvested 16-24 hours after oligonucleotide treatment.\nShort antisense compounds targeted to a PCSK9 nucleic acid were tested for their effects on PCSK9 mRNA in vitro. The Isis No, gapmer motif and SEQ ID NO of each short antisense compound are shown again in Table 75. Cultured Hep3B cells were treated with 100 nM of short antisense compound. 5-10-5 MOE gapmers targeted to a PCSK9 nucleic acid were used as positive controls. After the treatment period, RNA was isolated from the cells and PCSK9 mRNA levels were measured by quantitative real-time PCR, as described herein. PCSK9 mRNA levels were adjusted according to total RNA content as measured by RIBOGREEN®. Results are presented in Table 75 as percent inhibition of PCSK9 (% Inhib), relative to untreated control cells."}, "SGLT2 mRNA": {"test_system": "SGLT2 mRNA", "assay": "SGLT2 mRNA levels in kidney of Balb/c mice, twenty 1-10-1 MOE gapmers at 350 nmol/kg, PPS 534 and PPS 553 (Example 18, Table 74)", "assay_type": "in vivo, mouse", "settings": "350 nmol/kg i.p. twice per week for two weeks", "experimental": "Twenty 1-10-1 MOE gapmers that are complementary to human/monkey/mouse/rat SGLT2 were designed, synthesized and tested in vivo for suppression of SGLT2 mRNA levels in kidney. Data are averages from two experiments in which male 6-week old Balb/c mice were administered intraperitoneal injections of 350 nmol/kg of oligonucleotide, twice per week, over a period of two weeks (a total of four injections). Mice were sacrificed 48 hours following the last administration and evaluated for SGLT2 mRNA levels in kidney. SGLT2 mRNA levels were determined by quantitative real-time PCR analysis according to standard procedures, using two different PCR primer probe sets, primer probe set (PPS) 534 and PPS 553. SGLT2 mRNA levels were normalized to cyclophilin mRNA levels, which were also measured by quantitative real-time PCR."}}, "note": "Strand notation (5' to 3'): a small letter for the sugar, then the base; units joined by * are phosphorothioate-linked, units joined directly phosphodiester-linked; [ ] holds rarer units or linkages, { } end groups; capitals alone tell only the bases. e = 2'-O-(2-methoxyethyl) (MOE); [5mC] = 5-methylcytosine; d = 2'-deoxy (DNA)", "data": [{"substance": "400330 (e[5mC]*e[5mC]*dA*d[5mC]*dG*dT*dG*dG*dG*d[5mC]*dA*dG*e[5mC]*eA; antisense) [compound 400330]", "values": [{"measurement": "% Inhibition of PCSK9", "setting": "PCSK9 mRNA [1]; 5 nM", "value": 8, "unit": "%"}, {"measurement": "% Inhibition of PCSK9", "setting": "PCSK9 mRNA [1]; 10 nM", "value": 32, "unit": "%"}, {"measurement": "% Inhibition of PCSK9", "setting": "PCSK9 mRNA [1]; 20 nM", "value": 40, "unit": "%"}, {"measurement": "% Inhibition of PCSK9", "setting": "PCSK9 mRNA [1]; 40 nM", "value": 69, "unit": "%"}, {"measurement": "% Inhibition of PCSK9", "setting": "PCSK9 mRNA [1]; 80 nM", "value": 82, "unit": "%"}, {"measurement": "% Inhibition of PCSK9", "setting": "PCSK9 mRNA [1]; 160 nM", "value": 71, "unit": "%"}, {"measurement": "% Inhibition Range (PCSK9 mRNA)", "setting": "PCSK9 mRNA [2]", "value": "40-50%"}, {"measurement": "% Inhib (PCSK9 mRNA)", "setting": "PCSK9 mRNA [2]", "value": 43, "unit": "%"}]}, {"substance": "379692 (antisense eT*dG*dT*dT*d[5mC]*d[5mC]*dA*dG*d[5mC]*d[5mC]*d[5mC]*eA) [compound 379692]", "values": [{"measurement": "SGLT2 mRNA in kidney, % change relative to saline", "setting": "SGLT2 mRNA; primer probe set 534", "value": "−88.1", "unit": "%"}, {"measurement": "SGLT2 mRNA in kidney, % change relative to saline", "setting": "SGLT2 mRNA; primer probe set 553", "value": "−88.5", "unit": "%"}]}, {"substance": "400308 (e[5mC]*e[5mC]*dG*dG*d[5mC]*d[5mC]*dG*d[5mC]*dT*dG*dA*d[5mC]*e[5mC]*eA; antisense) [compound 400308]", "values": [{"measurement": "% Inhibition of PCSK9", "setting": "PCSK9 mRNA [1]; 5 nM", "value": 31, "unit": "%"}, {"measurement": "% Inhibition of PCSK9", "setting": "PCSK9 mRNA [1]; 10 nM", "value": 10, "unit": "%"}, {"measurement": "% Inhibition of PCSK9", "setting": "PCSK9 mRNA [1]; 20 nM", "value": 26, "unit": "%"}, {"measurement": "% Inhibition of PCSK9", "setting": "PCSK9 mRNA [1]; 40 nM", "value": 40, "unit": "%"}, {"measurement": "% Inhibition of PCSK9", "setting": "PCSK9 mRNA [1]; 80 nM", "value": 77, "unit": "%"}, {"measurement": "% Inhibition of PCSK9", "setting": "PCSK9 mRNA [1]; 160 nM", "value": 86, "unit": "%"}, {"measurement": "% Inhibition Range (PCSK9 mRNA)", "setting": "PCSK9 mRNA [2]", "value": "50-60%"}, {"measurement": "% Inhib (PCSK9 mRNA)", "setting": "PCSK9 mRNA [2]", "value": 55, "unit": "%"}]}, {"substance": "379695 (antisense eG*dG*dA*d[5mC]*dA*d[5mC]*d[5mC]*dG*dT*d[5mC]*dA*eG) [compound 379695]", "values": [{"measurement": "SGLT2 mRNA in kidney, % change relative to saline", "setting": "SGLT2 mRNA; primer probe set 534", "value": "−52.5", "unit": "%"}, {"measurement": "SGLT2 mRNA in kidney, % change relative to saline", "setting": "SGLT2 mRNA; primer probe set 553", "value": "−64.1", "unit": "%"}]}, {"substance": "379696 (antisense e[5mC]*dA*dG*d[5mC]*dT*dT*d[5mC]*dA*dG*dG*dT*eA) [compound 379696]", "values": [{"measurement": "SGLT2 mRNA in kidney, % change relative to saline", "setting": "SGLT2 mRNA; primer probe set 534", "value": "−24.6", "unit": "%"}, {"measurement": "SGLT2 mRNA in kidney, % change relative to saline", "setting": "SGLT2 mRNA; primer probe set 553", "value": "−36.2", "unit": "%"}]}, {"substance": "370717 (antisense eT*dA*dG*d[5mC]*d[5mC]*dA*d[5mC]*d[5mC]*dA*dA*d[5mC]*eT) [compound 370717]", "values": [{"measurement": "SGLT2 mRNA in kidney, % change relative to saline", "setting": "SGLT2 mRNA; primer probe set 534", "value": "−84.4", "unit": "%"}, {"measurement": "SGLT2 mRNA in kidney, % change relative to saline", "setting": "SGLT2 mRNA; primer probe set 553", "value": "−84.3", "unit": "%"}]}, {"substance": "379686 (antisense eA*d[5mC]*d[5mC]*dA*d[5mC]*dA*dA*dG*d[5mC]*d[5mC]*dA*eA) [compound 379686]", "values": [{"measurement": "SGLT2 mRNA in kidney, % change relative to saline", "setting": "SGLT2 mRNA; primer probe set 534", "value": "−71.9", "unit": "%"}, {"measurement": "SGLT2 mRNA in kidney, % change relative to saline", "setting": "SGLT2 mRNA; primer probe set 553", "value": "−75.1", "unit": "%"}]}, {"substance": "379699 (antisense eG*dG*d[5mC]*dA*dT*dG*dA*dG*d[5mC]*dT*dT*e[5mC]) [compound 379699]", "values": [{"measurement": "SGLT2 mRNA in kidney, % change relative to saline", "setting": "SGLT2 mRNA; primer probe set 534", "value": "−83.5", "unit": "%"}, {"measurement": "SGLT2 mRNA in kidney, % change relative to saline", "setting": "SGLT2 mRNA; primer probe set 553", "value": "−85.8", "unit": "%"}]}, {"substance": "400327 (eG*eT*d[5mC]*d[5mC]*d[5mC]*d[5mC]*dA*dA*dA*dG*dT*d[5mC]*e[5mC]*e[5mC]; antisense) [compound 400327]", "values": [{"measurement": "% Inhibition of PCSK9", "setting": "PCSK9 mRNA [1]; 5 nM", "value": 5, "unit": "%"}, {"measurement": "% Inhibition of PCSK9", "setting": "PCSK9 mRNA [1]; 10 nM", "value": 37, "unit": "%"}, {"measurement": "% Inhibition of PCSK9", "setting": "PCSK9 mRNA [1]; 20 nM", "value": 23, "unit": "%"}, {"measurement": "% Inhibition of PCSK9", "setting": "PCSK9 mRNA [1]; 40 nM", "value": 49, "unit": "%"}, {"measurement": "% Inhibition of PCSK9", "setting": "PCSK9 mRNA [1]; 80 nM", "value": 43, "unit": "%"}, {"measurement": "% Inhibition of PCSK9", "setting": "PCSK9 mRNA [1]; 160 nM", "value": 55, "unit": "%"}, {"measurement": "% Inhibition Range (PCSK9 mRNA)", "setting": "PCSK9 mRNA [2]", "value": "30-40%"}, {"measurement": "% Inhib (PCSK9 mRNA)", "setting": "PCSK9 mRNA [2]", "value": 36, "unit": "%"}]}, {"substance": "379701 (antisense e[5mC]*d[5mC]*dA*dT*dG*dG*dT*dG*dA*dA*dG*eA) [compound 379701]", "values": [{"measurement": "SGLT2 mRNA in kidney, % change relative to saline", "setting": "SGLT2 mRNA; primer probe set 534", "value": "−0.3", "unit": "%"}, {"measurement": "SGLT2 mRNA in kidney, % change relative to saline", "setting": "SGLT2 mRNA; primer probe set 553", "value": "−11.9", "unit": "%"}]}, {"substance": "379688 (antisense e[5mC]*d[5mC]*dA*dA*dG*d[5mC]*d[5mC]*dA*d[5mC]*dT*dT*eG) [compound 379688]", "values": [{"measurement": "SGLT2 mRNA in kidney, % change relative to saline", "setting": "SGLT2 mRNA; primer probe set 534", "value": "−62.6", "unit": "%"}, {"measurement": "SGLT2 mRNA in kidney, % change relative to saline", "setting": "SGLT2 mRNA; primer probe set 553", "value": "−70.4", "unit": "%"}]}]}
